Laboratory results published in patent US11066443B2 (Hoffmann-La Roche Inc., priority 2017, dated 2021).

Test system: P. aeruginosa NCTC11454
Assay: Antimicrobial susceptibility testing: 50% growth inhibitory concentration (IC50) determination
Type: cell-based
Conditions: Pseudomonas aeruginosa, Iso-Sensitest broth, OD 600 nm every 20 minutes over 16h, growth inhibition during logarithmic growth
Procedure: The in vitro antimicrobial activity of the compounds was alternatively determined according to the following procedure: The assay used a 10-points Iso-Sensitest broth medium to measure quantitatively the in vitro activity of the compounds against P. aeruginosa NCTC11454. Stock compounds in DMSO were serially twofold diluted (e.g. range from 50 to 0.097 μM final concentration) in 384 wells microtiter plates and inoculated with 49 μl the bacterial suspension in Iso-Sensitest medium to have a final cell concentration of ˜5×10^(5) CFU/ml in a final volume/well of 50 ul/well. Microtiter plates were incubated at 35±2° C. Bacterial cell growth was determined with the measurement of optical density at λ=600 nm each 20 minutes over a time course of 16h. Growth inhibition was calculated during the logarithmic growth of the bacterial cells with determination of the concentration inhibiting 50% (IC50) and 90% (IC90) of the growth. Table 2 provides the 50% growth inhibitory concentrations (IC50) in micromoles per liter of the compounds of present invention obtained against P. aeruginosa NCTC11454.

`CN1C(=O)[C@H](CCCCN)NC(=O)[C@H](CCCN)NCc2ccccc2Sc2c(Cl)cc(-c3ccccc3)cc2CNC(=O)[C@@H]1Cc1c[nH]c2ccccc12` [Example 32, (12S,15S,18S)-15-(4-Amino-butyl)-18-(3-amino-propyl)-4-chloro-12-(1H-indol-3-ylmethyl)-13-methyl-6-phenyl-2-thia-111,13,16,19-tetraaza-tricyclo[19.4.0.0*3,8*]pentacosa-1(25),3,5,7,21,23-hexaene-11,14,17-trione] and `CN1C(=O)[C@H](CCCCN)NC(=O)[C@H](CCCN)NCc2ccccc2Sc2c(Cl)cc(-c3ccccc3Cl)cc2CNC(=O)[C@@H]1Cc1c[nH]c2ccccc12` [Example 33, (12S,15S,18S)-15-(4-Amino-butyl)-18-(3-amino-propyl)-4-chloro-6-(2-chloro-phenyl)-12-(1H-indol-3-ylmethyl)-13-methyl-2-thia-10,13,16,19-tetraaza-tricyclo[19.4.0.0*3,8*]pentacosa-1(25),3,5,7,21,23-hexaene-11,14,17-trione] are within 1.5-fold of each other in IC50: 7.15 µM for the first, 9.02 µM for the second.

`CN1C(=O)[C@H](CCCCN)NC(=O)[C@H](CCCN)NCc2ccccc2Sc2ccc(Cl)cc2CNC(=O)[C@@H]1Cc1cn(C)c2ccccc12` [Example 6, (12S,15S,18S)-15-(4-Amino-butyl)-18-(3-amino-propyl)-6-chloro-13-methyl-12-(1-methyl-1H-indol-3-ylmethyl)-2-thia-10,13,16,19-tetraaza-tricyclo[19.4.0.0*3,8*]pentacosa-1(21),3,5,7,22,24-hexaene-11,14,17-trione] and `CN1C(=O)[C@H](CCCCN)NC(=O)[C@H](CCCN)NCc2ccccc2Sc2ccc(Cl)cc2CNC(=O)[C@@H]1Cc1c[nH]c2ccccc12` [Example 1, (12S,15S,18S)-15-(4-Amino-butyl)-18-(3-amino-propyl)-6-chloro-12-(1H-indol-3-ylmethyl)-13-methyl-2-thia-10,13,16,19-tetraaza-tricyclo[19.4.0.0*3,8*]pentacosa-1(21),3,5,7,22,24-hexaene-11,14,17-trione] are within 1.5-fold of each other in IC50: 22.7 µM for the first, 32 µM for the second.

`NCCCC[C@@H]1NC(=O)[C@H](CCCN)NCc2cccnc2Sc2c(ccc(-c3ccccc3)c2Cl)CNC(=O)[C@H](Cc2c[nH]c3ccccc23)NC1=O` [Example 26, (11S,14S,17S)-14-(4-Amino-butyl)-11-(3-amino-propyl)-25-chloro-17-(1H-indol-3-ylmethyl)-24-phenyl-2-thia-4,10,13,16,19-pentaaza-tricyclo[9.4.0.0*3,8*]pentacosa-1(25),3,5,7,21,23-hexaene-12,15,18-trione] and `NCCCC[C@@H]1NC(=O)[C@@H](CCCN)NCc2cccnc2Sc2c(ccc(-c3ccccc3)c2Cl)CNC(=O)[C@H](Cc2c[nH]c3ccccc23)NC1=O` [Example 25, (11R,14S,17S)-14-(4-Amino-butyl)-11-(3-amino-propyl)-25-chloro-17-(1H-indol-3-ylmethyl)-24-phenyl-2-thia-4,10,13,16,19-pentaaza-tricyclo[9.4.0.0*3,8*]pentacosa-1(25),3,5,7,21,23-hexaene-12,15,18-trione] are within 1.5-fold of each other in IC50: 23.7 µM for the first, 25.3 µM for the second.

Compared with `CN1C(=O)[C@H](CCCCN)NC(=O)[C@H](CCCN)NCc2ccccc2Sc2c(Cl)cc(-c3cccnc3)cc2CNC(=O)[C@@H]1Cc1c[nH]c2ccccc12` [Example 34, (12S,15S,18S)-15-(4-Amino-butyl)-18-(3-amino-propyl)-4-chloro-12-(1H-indol-3-ylmethyl)-13-methyl-6-pyridin-3-yl-2-thia-10,13,16,19-tetraaza-tricyclo[19.4.0.0*3,8*]pentacosa-1(25),3,5,7,21,23-hexaene-11,14,17-trione], `CN1C(=O)[C@H](CCCCN)NC(=O)[C@H](CCCN)NCc2ccccc2Sc2c(ccc(-c3ccccc3)c2Cl)CNC(=O)[C@@H]1Cc1c[nH]c2ccccc12` [Example 42, (12S,15S,18S)-15-(4-Amino-butyl)-18-(3-amino-propyl)-4-chloro-12-(1H-indol-3-ylmethyl)-13-methyl-5-phenyl-2-thia-10,13,16,19-tetraaza-tricyclo[19.4.0.0*3,8*]pentacosa-1(25),3,5,7,21,23-hexaene-11,14,17-trione] is 8-fold lower in IC50: 27.8 µM for the first, 3.47 µM for the second.

`CN1C(=O)[C@H](CCCCN)NC(=O)[C@H](CCCN)NCc2ccccc2Sc2ncc(Cl)cc2CNC(=O)[C@@H]1Cc1c[nH]c2ccccc12` [Example 43] and `CN1C(=O)[C@H](CCCCN)NC(=O)[C@H](CCCN)NCc2ccccc2Sc2nc(N3CCOCC3)ccc2CNC(=O)[C@@H]1Cc1c[nH]c2ccccc12` [Example 46] are within 1.5-fold of each other in IC50: 22.9 µM for the first, 20.3 µM for the second.

`CN1C(=O)[C@H](CCCCN)NC(=O)[C@H](CCCN)NCc2cccnc2Sc2c(Cl)ccc(C(F)(F)F)c2CNC(=O)[C@@H]1Cc1c[nH]c2ccc(Cl)cc12` [Example 31, (11S,14S,17S)-14-(4-Amino-butyl)-11-(3-amino-propyl)-25-chloro-17-(5-chloro-1H-indol-3-ylmethyl)-16-methyl-22-trifluoromethyl-2-thia-4,10,13,16,19-pentaaza-tricyclo[19.4.0.0*3,8*]pentacosa-1(25),3,5,7,21,23-hexaene-12,15,18-trione] and `CN1C(=O)[C@H](CCCCN)NC(=O)[C@H](CCCN)NCc2cccnc2Sc2c(Cl)ccc(-c3cccc(CCN)c3)c2CNC(=O)[C@@H]1Cc1c[nH]c2ccccc12` [Example 54, (11S,14S,17S)-14-(4-Amino-butyl)-22-[3-(2-amino-ethyl)-phenyl]-11-(3-amino-propyl)-25-chloro-17-(1H-indol-3-ylmethyl)-16-methyl-2-thia-4,10,13,16,19-pentaaza-tricyclo[19.4.0.0*3,8*]pentacosa-1(25),3(8),4,6,21,23-hexaene-12,15,18-trione] are within 1.5-fold of each other in IC50: 25.4 µM for the first, 29.1 µM for the second.

Compared with `Cc1[nH]c2ccccc2c1C[C@H]1C(=O)NCc2c(-c3ccncc3)ccc(Cl)c2Sc2ncccc2CN[C@@H](CCCN)C(=O)N[C@@H](CCCCN)C(=O)N1C` [Example 47, (11S,14S,17S)-14-(4-Amino-butyl)-11-(3-amino-propyl)-25-chloro-16-methyl-17-(2-methyl-1H-indol-3-ylmethyl)-22-pyridin-4-yl-2-thia-4,10,13,16,19-pentaaza-tricyclo[19.4.0.0*3,8*]pentacosa-1(25),3(8),4,6,21,23-hexaene-12,15,18-trione], `Cc1[nH]c2ccccc2c1C[C@H]1C(=O)NCc2cc(-c3ccnc(Cl)c3)cc(Cl)c2Sc2ncccc2CN[C@@H](CCCN)C(=O)N[C@@H](CCCCN)C(=O)N1C` [Example 44, (11S,14S,17S)-14-(4-Amino-butyl)-11-(3-amino-propyl)-25-chloro-23-(2-chloro-pyridin-4-yl)-16-methyl-17-(2-methyl-1H-indol-3-ylmethyl)-2-thia-4,10,13,16,19-pentaaza-tricyclo[19.4.0.0*3,8*]pentacosa-1(25),3(8),4,6,21,23-hexaene-12,15,18-trione] is 9.8-fold higher in IC50: 2.75 µM for the first, 27 µM for the second. The first is the more potent here.

Compound `CN1C(=O)[C@H](CCCCN)NC(=O)[C@H](CCCN)NCc2cccnc2Sc2c(Cl)cc(-c3ccnc(Cl)c3)cc2CNC(=O)[C@@H]1Cc1c[nH]c2ccccc12` [Example 40, (11S,14S,17S)-14-(4-Amino-butyl)-11-(3-amino-propyl)-25-chloro-23-(2-chloro-pyridin-4-yl)-17-(1H-indol-3-ylmethyl)-16-methyl-2-thia-4,10,13,16,19-pentaaza-tricyclo[19.4.0.0*3,8*]pentacosa-1(21),3,5,7,22,24-hexaene-12,15,18-trione] has an IC50 of 25.1 µM.
